PMC4052318, “Cyclodepsipeptides and Other O-Containing Heterocyclic Metabolites from Beauveria felina EN-135, a Marine-Derived Entomopathogenic Fungus” (Marine Drugs, 2014)
Converted amounts (≈) assume the structure as drawn. Numbered stars: 1 amine (or outer) side, 2 acyl side, 3 side chain; on linkers, the order of the positions; unused ones are H or OH. Square brackets hold non-standard residues; d marks the D form. Peptide text beside a SMILES is read from it. X1 = O=C([C@@H](C[C@H](O)CCl)O[*:1])[*:2]; dLac(3-vinyl) = C=CC[C@@H](O)C(=O)O; NMeV = CN[C@H](C(=O)O)C(C)C; NMeA = CN[C@@H](C)C(=O)O; βAla = NCCC(=O)O

Key:
[1] = test system: brine shrimp (Artemia salina); experiment: Brine-shrimp lethality; assay type: in vivo; conditions: for LD50, lethality against brine shrimp: colchicine as positive control; for lethal rate against brine shrimp: at a concentration of 100 μg/mL
Protocol: The brine-shrimp (Artemia salina) lethality of the isolated compounds was determined as previously described. Colchicine was used as a positive control.

[2] = test system: P. aeruginosa; experiment: Antimicrobial assay (disk diffusion and double dilution methods); assay type: cell-based; conditions: Pseudomonas aeruginosa; chloramphenicol as positive control; read-out: MIC against P. aeruginosa
Description: The antibacterial activities against E. coli, S. aureus, P. aeruginosa, V. alginolyticus, V. anguillarum, and E. tarda along with the antifungal activities against P. piricola, A. brassicae, C. gloeosporioides, and C. fusarium were investigated using the disk diffusion and double dilution methods as previously described. Chloramphenicol and amphotericin B were used as positive controls for the antibacterial and antifungal bioassays, respectively.

| Compound | LD50, lethality against brine shrimp [1] [μΜ] | other results |
| --- | --- | --- |
| CC[C@H](C)[C@@H]1CC(=O)NCC(=O)N[C@@H](C(C)C)C(=O)N[C@H](CC(C)C)C(=O)N[C@@H](C)C(=O)N[C@@H](C)C(=O)O1 [Compound 1, iso-isariin D] | 26.58 | – |
| C[C@@H]1CC2=C(CO1)C(=O)[C@@](C)(O)[C@H](O)C2 [Compound 2, felinone A] | – | lethal rate against brine shrimp [1]: 61.4% |
| O=C(N[C@H](CO)[C@H](O)c1ccc([N+](=O)[O-])cc1)C(Cl)Cl [chloramphenicol] | – | MIC [2]: 4 µg/mL (≈ 12.4 µM) |
| CC[C@H](C)[C@@H]1NC(=O)[C@@H]2CCCN2C(=O)[C@@H](C[C@H](O)CCl)OC(=O)CCNC(=O)[C@H](C)N(C)C(=O)[C@H](C(C)C)N(C)C1=O [Compound 6, destruxin E chlorohydrin] (cyclo([X1]PI[NMeV][NMeA][βAla])) | 2.16 | – |
| COc1cc2c(c(OC)c1OC)-c1ccc(OC)c(=O)cc1[C@@H](NC(C)=O)CC2 [colchicine, reference compound] | 88.4 | – |
| C=CC[C@H]1OC(=O)CCNC(=O)[C@H](C)N(C)C(=O)[C@H](C(C)C)N(C)C(=O)[C@H]([C@@H](C)CC)NC(=O)[C@@H]2CCCN2C1=O [Compound 4, destruxin A] (cyclo([dLac(3-vinyl)]PI[NMeV][NMeA][βAla])) | 5.34 | – |
| felinone B [Compound 3] | – | lethal rate against brine shrimp [1]: 59.6% |
